Results on 13 compounds are retold here after patent publication US20060247261A1 (priority 2002, published 2006).

As a reminder, the EC50 is the concentration needed to bring the measured effect to its halfway point. A higher EC50 goes with lower potency in that assay. Broadly, the Emax is the greatest response seen or fitted, relative to the assay's reference.

Structures can show the parent of a compound that is named as a salt.

The target in this experiment is T1, human cannabinoid CB2 receptor (Homo sapiens, UniProt P34972).
T1 construct: expressed in transfected cells; host or cells: Saccharomyces cerevisiae strain MMY23 (expresses a chimeric Gpa1/human Galpha-i3 G-protein alpha subunit)
T1 sequence (P34972 whole entry): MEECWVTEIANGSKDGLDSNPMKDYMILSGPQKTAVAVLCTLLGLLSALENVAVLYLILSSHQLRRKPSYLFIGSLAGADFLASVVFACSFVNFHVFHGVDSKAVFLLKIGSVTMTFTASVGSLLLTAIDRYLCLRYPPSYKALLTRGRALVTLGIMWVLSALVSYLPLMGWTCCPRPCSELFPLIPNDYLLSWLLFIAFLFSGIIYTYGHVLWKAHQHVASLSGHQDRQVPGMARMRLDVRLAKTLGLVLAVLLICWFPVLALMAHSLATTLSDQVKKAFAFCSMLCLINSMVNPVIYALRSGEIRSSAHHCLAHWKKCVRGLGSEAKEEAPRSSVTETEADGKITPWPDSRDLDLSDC
Kind of experiment: Cannabinoid CB2 receptor agonist activity, yeast reporter assay. Type of experiment: cell-based. Particulars: for Emax: read-out: efficacy (Emax) at the cloned human cannabinoid CB2 receptor. The source says:
Yeast (Saccharomyces cerevisiae) cells expressing the human cannabinoid CB2 receptor were generated by integration of an expression cassette into the ura3 chromosomal locus of yeast strain MMY23. This cassette consisted of DNA sequence encoding the human CB2 receptor flanked by the yeast GPD promoter to the 5′ end of CB2 and a yeast transcriptional terminator sequence to the 3′ end of CB2. MMY23 expresses a yeast/mammalian chimeric G-protein alpha subunit in which the C-terminal 5 amino acids of Gpa1 are replaced with the C-terminal 5 amino acids of human Gαi3 (as described in Brown et al. (2000), Yeast 16:11-22).
Agonists were prepared as 10 mM stocks in DMSO. […] Agonist solutions in DMSO (1% final assay volume) were transferred into black, clear bottom, microtitre plates from NUNC (96- or 384-well). […] Fluorescence was plotted against compound concentration and iteratively curve fitted using a four parameter fit to generate a concentration effect value.
In general terms: In a reporter assay the amount or activity of a reporter protein is the signal.

In the case of `O=C(NCc1ccc(F)cc1)c1cnc(Nc2cccc(Cl)c2F)nc1C(F)(F)F` [Example 83, 2-(3-Chloro-2-fluoro-phenylamino)-4-trifluoromethyl-pyrimidine-5-carboxylic acid 4-fluoro-benzylamide], the EC50 lay within 20 to 1000 nM and the Emax is > 50%.

Turning to `O=C(O)c1cc(Cl)cc(Nc2ncc(C(=O)NCc3ccc(F)cc3)c(C(F)(F)F)n2)c1` [Example 113, 3-Chloro-5-[(4-fluoro-benzylcarbamoyl)-trifluoromethyl-pyrimidin-2-ylarnino]-benzoic acid], the EC50 is > 1000 nM and the Emax was < 50%.

For `O=C(NCc1ccccc1)c1cnc(Nc2cc(Cl)cc(Cl)c2)nc1C(F)(F)F` [Example 11, 2-(3,5-Dichlorophenylamino)trifluoromethylpyrimidine-5-carboxylic acid benzyl-amide], the EC50 was 20 to 1000 nM and the maximum response (Emax) is > 50%.

For `Cc1cc(CNC(=O)c2cnc(Nc3cccc(F)c3)nc2C(F)(F)F)ccn1` [Example 77, 2-(3-Fluoro-phenylamino)-4-trifluoromethyl-pyrimidine-5-carboxylic acid N-(2-methyl-pyridin-4-ylmethyl)-amide], the EC50 is > 1000 nM and the Emax was < 50%.

Take `O=C(NCc1ccccc1)c1cnc(Nc2cc(Cl)ccc2Cl)nc1C(F)(F)F` [Example 56, 2-(2,5-Dichloro-phenylamino)-4-trifluoromethyl-pyrimidine-5-carboxylic acid N-benzylamide]: the EC50 is > 1000 nM and the Emax was < 50%.

In the case of `CN(Cc1ccccc1)C(=O)c1cnc(Nc2cccc(Cl)c2Cl)nc1C(F)(F)F` [Example 7, 2-(2,3-Dichlorophenylamino)-4-trifluoromethylpyrimidine-5-carboxylic acid N-benzyl-N-methylamide], the half-maximal effective concentration (EC50) fell in the range of 20 to 1000 nM and the Emax is > 50%.

Take `O=C(NCc1ccccc1Cl)c1cnc(Nc2cccc(Cl)c2)nc1C(F)(F)F` [Example 51, 2-(3-Chloro-phenylamino)-4-trifluoromethyl-pyrimidine-5-carboxylic acid N-(2-chlorobenzyl)amide]: the EC50 was > 1000 nM and the Emax was < 50%.

For the compound `CN(Cc1ccccc1)C(=O)c1cnc(Nc2ccc(Cl)cc2)nc1C(F)(F)F` [Example 45, 2-(4-Chloro-phenylamino)-4-trifluoromethyl-pyrimidine-5-carboxylic acid N-benzyl-N-methyl-amide], the EC50 was > 1000 nM and the Emax is < 50%.

As to `O=C(NCc1ccnc(F)c1)c1cnc(Nc2cccc(Br)c2)nc1C(F)(F)F` [Example 88, 2-(3-Bromo-phenylamino)-4-trifluoromethyl-pyrimidine-5-carboxylic acid (2-fluoro-pyridin4-ylmethyl)-amide], the EC50 is 20 to 1000 nM and the Emax was > 50%.

With `O=C(NCc1ccccc1)c1cnc(Nc2ccc(Cl)cc2)nc1C(F)(F)F` [Example 44, 2-(4-Chloro-phenylamino)4-trifluoromethyl-pyrimidine-5-carboxylic acid N-benzylamide], the EC50 was > 1000 nM and the Emax is < 50%.

With `CN(Cc1ccccc1)C(=O)c1cnc(Nc2ccc(C(C)(C)C)cc2)nc1C(F)(F)F` [2-(4-tert-butyl-phenylamino)-4-trifluoromethyl-pyrimidine-5-carboxylic acid benzyl-methyl-amide], the “activity in the CB2 assay (in words)” value (CB2 assay described herein) is “inactive”.

Take `Cc1cc(CNC(=O)c2cnc(Nc3cccc(Cl)c3)nc2C(F)(F)F)ccn1` [Example 28, 2-(3-Chloro-phenylamino)-4-trifluoromethyl-pyrimidine-5-carboxylic acid (2-methyl-pyridin-4-ylmethyl)-amide hydrochloride]: the EC50 was 20 to 1000 nM and the Emax is > 50%.

Turning to `COc1ccc(Nc2ncc(C(=O)N(C)Cc3ccccc3)c(C(F)(F)F)n2)cc1` [Example 47, 2-(4-Methoxy-phenylamino)-4-trifluoromethyl-pyrimidine-5-carboxylic acid N-benzyl-N-methyl-amide], the EC50 was > 1000 nM and the Emax is < 50%.
